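Five concentrations, 48 hours, 96-well plates. TGI denotes the concentration required for complete inhibition of growth.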
How the values were obtained:
Assay in all cases: growth of human tumour cells (NCI), 48 h
[1] = test system: 786-0 renal
[2] = test system: COLO 205 colon
[3] = test system: HCT-116 colon
[4] = test system: HS 578T breast
[5] = test system: MCF7 breast
[6] = test system: MDA-N
[7] = test system: NCI/ADR-RES ovarian
[8] = test system: OVCAR-5 ovarian
[9] = test system: OVCAR-8 ovarian
[10] = test system: RXF 393 renal
[11] = test system: SF-539 CNS
[12] = test system: SK-MEL-2 melanoma
[13] = test system: SK-MEL-28 melanoma
[14] = test system: SK-OV-3 ovarian
[15] = test system: SR leukemia
[16] = test system: UACC-257 melanoma

Row | Compound | TGI [1] [µM] | TGI [2] [µM] | TGI [3] [µM] | TGI [4] [µM] | TGI [5] [µM] | TGI [6] [µM] | TGI [7] [µM] | TGI [8] [µM] | TGI [9] [µM] | TGI [10] [µM] | TGI [11] [µM] | TGI [12] [µM] | TGI [13] [µM] | TGI [14] [µM] | TGI [15] [µM] | TGI [16] [µM]
1 | CN(C)CCCCN1c2ccccc2Sc2cc(N=[N+]=[N-])ccc21 | 3.08 | 3.09 | 3.32 | 9.83 | 3.32 | 3.1 | 4.07 | 3.76 | 3.38 | 10.6 | 3.4 | 3.4 | 3.3 | 5.1 | > 100 | 3.25
2 | CCOC(=O)C1C(c2ccc(OC)cc2)c2c([nH][nH]c2=O)CC1(O)OCC (configuration not stated) | > 100 | > 100 | > 100 | > 100 | > 100 | > 100 | > 100 | > 100 | > 100 |  | > 100 | > 100 | > 100 |  | > 100 | > 100
3 | COc1ccc2cc(/C=N\NC(=O)Nc3cccc4ccccc34)ccc2c1 | 25.5 | > 100 | 30.5 | 94.6 | > 100 | > 100 | > 100 | > 100 | > 100 | > 100 | > 100 | > 100 | > 100 |  | 29.6 | > 100
4 | NC(=O)C(c1ccccc1)N1OC2C(=O)N(c3cccc4ccccc34)C(=O)C2C1c1c2ccccc2c(Cl)c2ccccc12 (configuration not stated) | 21.4 | 14.9 | 3.05 | > 50 | 11.2 | 7.88 | 28.2 | 19.3 | 19.4 | 16.8 | 12.9 | 19.6 | 34.6 | > 50 | 3.8 | 15.7
5 | CN(C)C(=O)Nc1cc2c3c(c1)CCCN3CCC2 | > 10 | > 10 | > 10 | > 10 | > 10 | > 10 | > 10 |  | > 10 | > 10 | > 10 | > 10 | > 10 | > 10 | > 10 | > 10
6 | O=c1c2cccnc2cc(-c2ccccc2)n1CCO | > 100 | > 100 | > 100 | > 100 | > 100 | > 100 | > 100 | > 100 | > 100 | > 100 |  | > 100 | > 100 | > 100 | > 100 | > 100
7 | O=c1[nH]c(=S)[nH]n1C(=S)n1[nH]c(=S)[nH]c1=O | > 100 | > 100 | > 100 | > 100 | 40.6 | > 100 | > 100 | > 100 | > 100 | > 100 | > 100 | > 100 | > 100 |  | > 100 | > 100
8 | COc1cccc2c(Nc3ccc(S(=O)(=O)NC(C)=O)cc3)c3ccc([N+](=O)[O-])cc3nc12 | > 100 | > 95.7 | > 100 | > 100 | > 100 | > 100 | > 100 | > 100 | > 100 | > 100 | > 100 | > 100 | > 79.5 | > 100 | 34.3 | > 54.9

Source: PubChem BioAssay (NCI)
